Series [1] deals with prostate neoplasia. Description: Use case: PDT and SONG laser in treatment of prostate neoplasia. Conditions: a few weeks after treatment.
The test system of series [2] is Glioblastoma multiforme. As to the kind of experiment: Use case: PDT and SONG laser in treatment of glioblastoma multiforme. The format is in vivo, human. From the text: The process is further described within a use case scenario of treating a person diagnosed with glioblastoma multiforme. Glioblastoma multiforme is the most aggressive of the brain cancers characterized by rapid growth and extensions throughout the brain making it surgically incurable. Prognosis without treatment is usually 3 months and with maximum treatment only 18 months. The conventional treatment protocol is neurosurgical debulking, targeted and whole brain radiation, followed by 6 months of chemotherapy with Temodar. After these treatments have been exhausted and disease recurs the prognosis is very poor and short term.
The patient described in the stated use case received debulking neurosurgery, targeted radiation to the areas of visible mass, followed by whole brain radiation, and then 6 months of Temodar. After these treatments they suffered memory loss and emotional instability.
A month after completing their last cycle of chemotherapy, the patient received the SONG Laser-based photodynamic therapy in accordance with the present specification, using ICG as the photo-active compound. On days 1, 2, and 3 of the treatment, the patient received 50 mg of nanoscaled or liposomal ICG. On day 3 they were treated with a SONG laser device at 810 nm near infra-red with a primary beam power of 5 Watts. From the peak power measured after going through the beam expander and SONG generator of 3.5 Watts this was reduced 60% to a measured output power of 1.4 Watts. The treated laser was applied in a beam expanded to 25 mm to the whole brain transcutaneously for 12 minutes total duration, by slowly scanning the 25 mm beam systematically over the skull under which brain substance is located. […]
In the mentioned use case, an additional adjunct to the patient's PDT treatment included administering SONG Laser activated and guided very small embryonic-like (VSEL) stem cells 3 days before the PDT cycle began. […] This procedure with SONG Laser activated and guided VSELs was repeated 1 day before the PDT procedure, except with 2.7 times the quantity of VSELs.

[3] abbreviates: same methylene blue + SONG laser protocol.

Molecules are shown by their SMILES.

In the case of `CN(C)c1ccc2nc3ccc(=[N+](C)C)cc-3sc2c1` [methylene blue, Methylene Blue], the “reduction of PSA” value in series [1] (50 mg orally and also intra-rectally, 1 h wait, SONG laser 660 nm, 80 mW output, through the perineum, 10 min, PSA of 16 before) came to 50%. Moreover, the “PSA level after treatment” value in series [1] (PSA of 16 before, same methylene blue + SONG laser protocol) was 8. Further, in series [1] (setting [3]), the adverse effects entry is on record as “no adverse effects” and the urinary symptoms result is reported as “improvements in urinary symptoms”.
For the compound `CC1(C)C(/C=C/C=C/C=C/C=C2\N(CCCCS(=O)(=O)O)c3ccc4ccccc4c3C2(C)C)=[N+](CCCCS(=O)(=O)[O-])c2ccc3ccccc3c21` [ICG, Indocyanine Green], the “MRI scan repeated, recurrence” value in series [2] (4 months after completing last chemotherapy, same ICG + SONG laser 810 nm protocol) is recorded as “no evidence of recurrence”. Moreover, the “MRI scan, recurrence of Glioblastoma multiforme” value in series [2] (a month after PDT, 50 mg nanoscaled or liposomal ICG on days 1, 2, 3, SONG laser 810 nm, 1.4 W output, whole brain, 12 min on two days, adjunct laser-activated VSELs) was “no evidence of recurrence”. Also, in series [2] (over the next 2 months after the first MRI, same ICG + SONG laser protocol), the memory and mood result was “improvements in their memory and mood”.

The values above are taken from patent US20250242170A1, “Methods and Systems for Improving Photodynamic Therapy by Increasing Depth of Penetration Without Concurrently Increasing Energy Deposition” (priority 2024, published 2025).
